Values quoted from earlier work as cited in US20100273711A1, “INDIVIDUALIZED CANCER TREATMENTS” (priority 2007, published 2010).

Columns and labels:
DV90 = details: pemetrexed, cell line DV90; cited from earlier work
BT20 = details: pemetrexed, cell line BT20; cited from earlier work
SK-MEL-28 = details: pemetrexed, cell line SK-MEL-28; cited from earlier work
A375 = details: pemetrexed, cell line A375; cited from earlier work
MDA-MB-435 = details: pemetrexed, cell line MDA-MB-435; cited from earlier work
SK-MEL-2 = details: pemetrexed, cell line SK-MEL-2; cited from earlier work
K-562 = details: pemetrexed, cell line K-562; cited from earlier work
SNU423 = details: pemetrexed, cell line SNU423; cited from earlier work
MCF7 = details: pemetrexed, cell line MCF7; cited from earlier work
OVKAR = details: pemetrexed, cell line OVKAR; cited from earlier work
NCI-H226 = details: pemetrexed, cell line NCI-H226; cited from earlier work
ME43 = details: pemetrexed, cell line me43; cited from earlier work
FUOV1 = details: pemetrexed, cell line FUOV1; cited from earlier work
M14 = details: pemetrexed, cell line M14; cited from earlier work
MALME-3M = details: pemetrexed, cell line MALME-3M; cited from earlier work
OAW42 = details: pemetrexed, cell line OAW42; cited from earlier work
Molt-4 = details: pemetrexed, cell line Molt-4; cited from earlier work
ES2 = details: pemetrexed, cell line ES2; cited from earlier work

Nc1nc2[nH]cc(CCc3ccc(C(=O)N[C@@H](CCC(=O)O)C(=O)O)cc3)c2c(=O)[nH]1 [Pemetrexed, pemetrexed]
Resistant (Res) or Sensitive (Sen) (DV90): Sen | Resistant (Res) or Sensitive (Sen) (BT20): Sen | Resistant (Res) or Sensitive (Sen) (SK-MEL-28): Sen | Resistant (Res) or Sensitive (Sen) (A375): Res | Resistant (Res) or Sensitive (Sen) (MDA-MB-435): Sen | Resistant (Res) or Sensitive (Sen) (SK-MEL-2): Sen | Resistant (Res) or Sensitive (Sen) (K-562): Res | Resistant (Res) or Sensitive (Sen) (SNU423): Res | Resistant (Res) or Sensitive (Sen) (MCF7): Res | Resistant (Res) or Sensitive (Sen) (OVKAR): Sen | Resistant (Res) or Sensitive (Sen) (NCI-H226): Sen | Resistant (Res) or Sensitive (Sen) (ME43): Res | Resistant (Res) or Sensitive (Sen) (FUOV1): Sen | Resistant (Res) or Sensitive (Sen) (M14): Sen | Resistant (Res) or Sensitive (Sen) (MALME-3M): Sen | Resistant (Res) or Sensitive (Sen) (OAW42): Sen | Resistant (Res) or Sensitive (Sen) (Molt-4): Res | Resistant (Res) or Sensitive (Sen) (ES2): Res
